In the test the target is T1, BRD9 (Homo sapiens, UniProt Q9H8M2).
T1 sequence (Q9H8M2 1-597): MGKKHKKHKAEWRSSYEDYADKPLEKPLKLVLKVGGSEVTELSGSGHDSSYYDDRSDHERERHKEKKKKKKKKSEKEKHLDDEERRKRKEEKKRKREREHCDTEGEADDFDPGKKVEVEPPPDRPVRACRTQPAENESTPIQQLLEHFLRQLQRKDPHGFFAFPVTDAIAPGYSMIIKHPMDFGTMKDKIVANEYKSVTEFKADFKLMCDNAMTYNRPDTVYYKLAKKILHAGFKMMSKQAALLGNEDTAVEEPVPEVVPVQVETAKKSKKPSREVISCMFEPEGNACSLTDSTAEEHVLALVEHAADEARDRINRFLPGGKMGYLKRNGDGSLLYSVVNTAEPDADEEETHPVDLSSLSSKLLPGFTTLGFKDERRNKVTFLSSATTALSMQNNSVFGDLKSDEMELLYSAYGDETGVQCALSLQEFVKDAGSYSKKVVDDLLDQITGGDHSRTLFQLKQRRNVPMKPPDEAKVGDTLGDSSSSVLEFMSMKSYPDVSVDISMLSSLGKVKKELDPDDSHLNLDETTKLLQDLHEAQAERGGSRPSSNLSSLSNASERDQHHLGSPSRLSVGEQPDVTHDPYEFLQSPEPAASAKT
The test can be described thus: Degradation of BRD9 (IF), immunofluorescence in MV4-11 cells, 24 hours (Assay Protocol 2). Format: cell-based. On the set-up: A suspension of MV4-11 cells (ATCC CRL-9591) was prepared; host or cells: MV4-11. The note with it: BRD9 degradation; for DC50: Assay protocol 2, read-out: DC50; for Dmax: MV4-11, Assay protocol 2, read-out: Dmax. Put shortly:
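MV4-11 cells treated with compound 24 h at 37° C., then fixed, permeabilised and immunostained for BRD9 (anti-BRD9 E4Q3F, Alexa 647 secondary, Hoechst counterstain). High-content imaging quantified nuclear BRD9 signal; % BRD9 remaining normalised to DMSO and 100 nM CFT-8634 controls.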

SMILES strings stand for the structures.

One may read the DC50 as the concentration at which degradation of the target reaches its halfway point. Broadly, the Dmax is the greatest extent of degradation seen.

As to `COc1cc(-c2cn(C)c(=O)c(C)c2C)cc(OC)c1CN1CCC(Cc2cccc3c2CCN(C(=O)/C(C#N)=C/C(C)(C)CF)[C@H]3C)CC1` (single isomer, unassigned) [Compound C60, (E/Z)-2-(5-((1-(2,6dimethoxy-4-(1,4,5-trimethyl-6-oxo-1,6-dihydropyridin-3-yl)benzyl)piperidin-yl)methyl)-1-methyl-1,2,3,4-tetrahydroisoquinoline-2-carbonyl)-5-fluoro-4,4-dimethylpent-2-enenitrile], the DC50 was in the range of 1.25 to 10 nM and the Dmax lay in the range of 70 to 75%.
As to `COc1cc(-c2cn(C)c(=O)c(C)c2C)cc(OC)c1CN1CCC2(CCN(c3cccc4c3CCN(C(=O)/C(C#N)=C/C(C)(C)C)C4C)C2)C1` (centres unmarked) [Compound C42, (E2Z)-2-(5-(7-(2,6-dimethoxy-4-(1,4,5-trimethyl-6-oxo-1,6-dihydropyridin-3-yl)benzyl)-2,7-diazaspiro[4.4]nonan-2-yl)-1-methyl-1,2,3,4-tetrahydroisoquinolin-2-carbonyl)-4,4-dimethylpent-2-enenitrile], the 50% degradation concentration (DC50) fell in the range of 1.25 to 10 nM and the Dmax lay within 40 to 70%.
Turning to `COc1cc(-c2cn(C)c(=O)c(C)c2C)cc(OC)c1CN1CCN(Cc2cccc3c2CCN(C(=O)/C(C#N)=C/C(C)(C)C)[C@@H]3C(C)C)CC12CC2` (single isomer, unassigned) [Compound C82, (E/Z)-2-(5-((4-(2,6-dimethoxy-4-(1,4,5-trimethyl-6-oxo-1,6-dihydropyridin-3-yl)benzyl)-4,7-diazaspiro[2.5]octan-7-yl)methyl)-1-isopropyl-1,2,3,4-tetrahydroisoquinoline-2-carbonyl)-4,4-dimethylpent-2-enenitrile], the DC50 was in the range of 25 to 1000 nM and the Dmax lay in the range of 40 to 70%.
As for `COc1cc(-c2cn(C)c(=O)c(C)c2C)cc(OC)c1CN1CC2CC(C1)N2Cc1ccc2c(c1)[C@H](C)N(C(=O)/C(C#N)=C/C(C)(C)C)CC2` (single isomer, unassigned) [Compound C63, (E/Z)-2-(7-((3-(2,6-dimethoxy-4-(1,4,5-trimethyl-6-oxo-1,6-dihydropyridin-3-yl)benzyl)-3,6-diazabicyclo[3.1.1]heptan-6-yl)methyl)-1-methyl-1,2,3,4-tetrahydroisoquinoline-2-carbonyl)-4,4-dimethylpent-2-enenitrile], the half-maximal degradation concentration (DC50) lay within 1.25 to 10 nM and the Dmax was greater than 75%.
Turning to `COc1cc(-c2cn(C)c(=O)c(C)c2C)cc(OC)c1CN1CCN(C(=O)COCCOc2ccc3c(c2)C(C)N(C(=O)/C(C#N)=C/c2nccs2)CC3)CC1` (mixture of isomers) [Compound B83, (E/Z)-2-(7-(2-(2-(4-(2,6-dimethoxy-4-(1,4,5-trimethyl-6-oxo-1,6-dihydropyridin-3-yl)benzyl)piperazin-1-yl)-2-oxoethoxy)ethoxy)-1-methyl-1,2,3,4-tetrahydroisoquinoline-2-carbonyl)-3-(thiazol-2-yl)acrylonitrile], the DC50 was 1.25 to 10 nM and the Dmax was greater than 75%.
For `COc1cc(-c2cn(C)c(=O)c(C)c2C)cc(OC)c1CN1CC(N(C)Cc2ccc3c(c2)[C@@H](C)N(C(=O)/C(C#N)=C/C(C)(C)C)CC3)C1` (single isomer, unassigned) [Compound C71, (E/Z)-2-(7-(((1-(2,6-dimethoxy-4-(1,4,5-trimethyl-6-oxo-1,6-dihydropyridin-3-yl)benzyl)460zetidine-4-yl)(methyl)amino)methyl)-1-methyl-1,2,3,4-tetrahydroisoquinoline-2-carbonyl)-4,4-dimethylpent-2-enenitrile] the same measures were 25 to 1000 nM and 40 to 70%.
`COc1cc(-c2cn(C)c(=O)c(C)c2C)cc(OC)c1CN1CCN(Cc2cccc3c2CCN(C(=O)/C(C#N)=C/C(C)(C)C)C3C)CC12CC2` (mixture of isomers) [Compound B103, (E/Z)-2-(5-((4-(2,6-dimethoxy-4-(1,4,5-trimethyl-6-oxo-1,6-dihydropyridin-3-yl)benzyl)-4,7-diazaspiro[2.5]octan-7-yl)methyl)-1-methyl-1,2,3,4-tetrahydroisoquinoline-2-carbonyl)-4,4-dimethylpent-2-enenitrile]: the DC50 was in the range of 1.25 to 10 nM and the Dmax is greater than 75%.

Values taken from patent US20260092061A1, “COMPOUNDS FOR TARGETED PROTEIN DEGRADATION” (Amphista Therapeutics Limited, priority 2022, published 2026).
